# Target: PIK3CG (human) (UniProt P48736)
# Experiment: Assessment of PIK3CG Kinase Activity
# PIK3CG (human), sequence (P48736 whole entry, looked up): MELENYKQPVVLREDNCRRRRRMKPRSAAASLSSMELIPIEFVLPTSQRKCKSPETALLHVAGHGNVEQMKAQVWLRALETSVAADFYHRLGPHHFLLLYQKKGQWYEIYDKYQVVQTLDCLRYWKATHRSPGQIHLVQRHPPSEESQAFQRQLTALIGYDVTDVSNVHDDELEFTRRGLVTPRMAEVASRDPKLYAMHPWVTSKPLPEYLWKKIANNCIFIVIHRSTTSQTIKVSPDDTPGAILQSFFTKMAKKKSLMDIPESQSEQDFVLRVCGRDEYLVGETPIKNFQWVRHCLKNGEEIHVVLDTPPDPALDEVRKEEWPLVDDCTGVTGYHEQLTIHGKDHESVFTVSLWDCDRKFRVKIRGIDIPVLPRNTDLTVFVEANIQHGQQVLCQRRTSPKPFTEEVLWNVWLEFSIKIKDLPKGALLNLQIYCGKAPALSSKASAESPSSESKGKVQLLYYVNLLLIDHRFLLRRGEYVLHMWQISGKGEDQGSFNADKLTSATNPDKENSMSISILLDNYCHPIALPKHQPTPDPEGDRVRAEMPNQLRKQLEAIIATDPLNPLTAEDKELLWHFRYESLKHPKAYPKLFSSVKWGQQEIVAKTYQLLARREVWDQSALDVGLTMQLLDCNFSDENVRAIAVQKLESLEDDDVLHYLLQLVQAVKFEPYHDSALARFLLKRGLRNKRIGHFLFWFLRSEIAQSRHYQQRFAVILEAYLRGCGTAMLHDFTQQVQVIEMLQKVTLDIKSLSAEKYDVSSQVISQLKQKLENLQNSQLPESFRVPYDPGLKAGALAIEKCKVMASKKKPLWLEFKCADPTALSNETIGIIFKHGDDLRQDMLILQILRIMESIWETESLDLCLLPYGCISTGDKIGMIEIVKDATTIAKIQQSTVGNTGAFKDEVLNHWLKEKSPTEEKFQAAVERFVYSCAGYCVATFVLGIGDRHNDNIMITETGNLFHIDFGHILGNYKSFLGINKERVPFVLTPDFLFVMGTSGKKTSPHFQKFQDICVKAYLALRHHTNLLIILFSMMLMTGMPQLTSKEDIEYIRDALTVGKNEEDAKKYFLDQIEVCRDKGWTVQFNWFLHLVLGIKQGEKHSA
row,IC50 [nM],Structure (SMILES)
1,< 800,CC(=O)Nc1nc2c(s1)-c1c(c(-c3cn(C)cn3)nn1-c1ccccc1C)CC2
2,< 800,CCN1CCCC(NC(=O)Cc2ccc(-n3ncc4c3-c3sc(NC(C)=O)nc3CC4)cc2)C1 (stereo unspecified)
3,< 800,CCn1ncc2c1-c1sc(NC(C)=O)nc1CC2
4,< 800,CC(=O)Nc1nc2c(s1)-c1nc(N3CCCC3=O)ncc1CC2
5,< 800,COc1ccc(-n2ncc3c2-c2sc(NC(C)=O)nc2CC3)cc1
6,< 800,CCCn1ncc2c1-c1sc(NC(C)=O)nc1CC2
7,< 800,NCC#CCNC(=O)Nc1nc2c(s1)-c1c(cnn1-c1ccccc1)CC2
8,< 800,CC(=O)Nc1nc2c(s1)-c1c(cnn1-c1cccc(Br)c1)CC2
9,< 800,CC(=O)Nc1nc2c(s1)-c1nc(N(C)CCCN(C)C)ncc1CC2
10,< 800,CCCCn1ncc2c1-c1sc(NC(C)=O)nc1CC2
11,< 800,CC(=O)Nc1nc2c(s1)-c1c(cnn1-c1ccc(CC(=O)Nc3cc(O)[nH]n3)cc1)CC2
12,< 800,CNC(=O)Nc1nc2c(s1)-c1c(cnn1-c1ccccc1Cl)C2
13,< 800,CC(=O)Nc1nc2c(s1)-c1c(cnn1-c1ccc(C(=O)NCCCn3ccnc3)cc1)CC2
14,< 800,CC(=O)Nc1nc2c(s1)-c1c(cnn1-c1ccccc1)CC2
15,< 800,CCSC(=O)Nc1nc2c(s1)-c1c(cnn1-c1ccccc1)CC2
16,< 800,NC(=O)[C@@H]1CCCN1CC(=O)Nc1nc2c(s1)-c1c(cnn1-c1ccccc1)CC2
17,< 800,CC(=O)Nc1nc2c(s1)-c1c(cnn1-c1ccc(C(=O)NCc3ccncc3)cc1)CC2
18,< 800,CC(=O)Nc1nc2c(s1)-c1c(c(C(C)C)nn1-c1ccc(C(=O)NC3CCN(C)CC3)cc1Cl)CC2
19,< 800,CC(=O)Nc1nc2c(s1)-c1c(cnn1-c1ccc(C(=O)N[C@@H](Cc3cc4ccccc4[nH]3)C(N)=O)cc1Cl)CC2
20,< 800,CC(=O)Nc1nc2c(s1)-c1c(c(C#C[Si](C)(C)C)nn1-c1ccccc1Cl)CC2
21,< 800,CC(=O)Nc1nc2c(s1)-c1c(cnn1-c1ccc(CC(=O)O)cc1)CC2
22,< 800,CC(=O)Nc1nc2c(s1)-c1c(cnn1-c1ccc(Cl)cc1Cl)CC2
23,< 800,CC(=O)Nc1nc2c(s1)-c1c(cnn1-c1ccccc1C(F)(F)F)CC2
24,< 800,CC(=O)Nc1nc2c(s1)-c1c(cnn1-c1ccc(O)c(Cl)c1)CC2

row,IC50 [nM],Structure (SMILES)
1,< 800,NCC(=O)Nc1nc2c(s1)-c1c(cnn1-c1ccccc1)CC2
2,< 800,CC(=O)Nc1nc2c(s1)-c1c(cnn1-c1ccc(C(=O)N3CCCC3c3ccncc3)cc1)CC2 (stereo unspecified)
3,< 800,CC(=O)Nc1nc2c(s1)-c1c(cnn1-c1ccc(C(=O)N[C@H]3CC[C@H](N)CC3)cc1)CC2
4,< 800,CC(=O)Nc1nc2c(s1)-c1c(cnn1-c1ccc(S(=O)(=O)N3CCCCC3)cc1)CC2
5,< 800,CC(=O)Nc1nc2c(s1)-c1nn(-c3ccccc3Br)c(-c3ccco3)c1CC2
6,< 800,CC(=O)Nc1nc2c(s1)-c1nn(-c3ccc(C(=O)N[C@H]4CC[C@H](N5CCCC5)CC4)cc3)c(-c3ccco3)c1CC2
7,< 800,CC(=O)Nc1nc2c(s1)-c1cc([N+](=O)[O-])ccc1CC2
8,< 800,CC(=O)Nc1nc2c(s1)-c1c(cnn1-c1ccc(C(=O)N[C@@H](Cc3ccc4ccccc4c3)C(N)=O)cc1Cl)CC2
9,< 800,CC(=O)Nc1nc2c(s1)-c1c(cnn1-c1ccc(C(=O)N(C)CC(=O)N(C)C)cc1)CC2
10,< 800,CC(=O)Nc1nc2c(s1)-c1c(cnn1-c1ccc(C(=O)N3CCCC(CO)C3)cc1)CC2 (stereo unspecified)
11,< 800,CC(=O)Nc1nc2c(s1)-c1nc(SCCCN(C)C)ncc1CC2
12,< 800,O=C(Nc1nc2c(s1)-c1nc(-c3ccccc3)ncc1CC2)N1CCOCC1
13,< 800,CC(=O)Nc1nc2c(s1)-c1c(cnn1-c1ccc(C(=O)N[C@H]3CC[C@H](N(C)C)CC3)cc1)CC2
14,< 800,CC(=O)Nc1nc2c(s1)-c1c(cnn1-c1ccc(N3C4CCC3CC(O)C4)cc1)CC2 (stereo unspecified)
15,< 800,CC(=O)Nc1nc2c(s1)-c1nc(N3CCOCC3)ncc1C2
16,< 800,CC(=O)Nc1ncc2c(n1)-c1sc(NC(C)=O)nc1CC2
17,< 800,CN1CCN(C(=O)Nc2nc3c(s2)-c2nc(-c4ccccc4)ncc2CC3)CC1
18,< 800,CC(=O)Nc1nc2c(s1)-c1c(cnn1-c1ccc3nc[nH]c3c1)CC2
19,< 800,CC(=O)Nc1nc2c(s1)-c1c(cnn1-c1ccc(C(=O)NC(C)(C)CN3CCN(C)CC3)cc1)CC2
20,< 800,CC(=O)Nc1nc2c(s1)-c1c(cnn1-c1ccc(C(=O)N3CCc4[nH]cnc4C3)cc1)CC2
21,< 800,CC(=O)Nc1nc2c(s1)-c1nc(-c3ccccn3)ncc1CC2
22,< 800,CC(=O)Nc1nc2c(s1)-c1c(c(-c3ccco3)nn1-c1ccccc1Br)CC2
23,< 800,CC(=O)Nc1nc2c(s1)-c1c(c([C@H]3CCCO3)nn1-c1ccc(C(=O)N[C@H]3CC[C@@H](N4CCCC4)CC3)cc1Cl)CC2
24,< 800,CC(=O)Nc1nc2c(s1)-c1c(cnn1-c1ccc(C(=O)N[C@H]3CC[C@H](N4CCN(S(C)(=O)=O)CC4)CC3)cc1)CC2

row,IC50 [nM],Structure (SMILES)
1,< 800,CC(=O)Nc1nc2c(s1)-c1c(cnn1-c1ccc(CC(=O)NCC(=O)N(C)C)cc1)CC2
2,< 800,CC(=O)Nc1nc2c(s1)-c1c(c(-c3ccco3)nn1-c1ccc(C(=O)N(C)C)cc1Cl)CC2
3,< 800,CC(=O)Nc1nc2c(s1)-c1c(cnn1-c1ccc(C(=O)N3CCC[C@H]3C(=O)O)cc1)CC2
4,< 800,CC(=O)Nc1nc2c(s1)-c1c(cnn1-c1ccc(C(=O)N3CCC4(CCN(C)C4)C3)cc1)CC2 (stereo unspecified)
5,< 800,CC(=O)Nc1nc2c(s1)-c1nn(-c3ccccc3)c(-c3cn(C)cn3)c1CC2
6,< 800,CNC(=O)c1nn(-c2ccccc2Cl)c2c1CCc1nc(NC(C)=O)sc1-2
7,< 800,CC(=O)Nc1nc2c(s1)-c1c(c([C@H]3CCCO3)nn1-c1ccccc1C(F)(F)F)CC2
8,< 800,CC(=O)Nc1nc2c(s1)-c1c(cnn1-c1ccccn1)CC2
9,< 800,O=C(Nc1nc2c(s1)-c1c(cnn1-c1ccccc1)CC2)N1CCOCC1
10,< 800,CC(=O)Nc1nc2c(s1)-c1c(cnn1-c1ccc(C(F)(F)F)cc1)CC2
11,< 800,CC(=O)Nc1nc2c(s1)-c1c(cnn1-c1ccc(C(=O)N3CCC(NC(=O)c4ccccc4)CC3)cc1)CC2
12,< 800,CC(=O)Nc1nc2c(s1)-c1nc(NCCCC(=O)O)ncc1CC2
13,< 800,COc1cccc(-c2ncc3c(n2)-c2sc(NC(C)=O)nc2CC3)c1
14,< 800,CC(=O)Nc1nc2c(s1)-c1nc(-c3ccc(O)cc3)ncc1CC2
15,< 800,COC(=O)Nc1nc2c(s1)-c1c(cnn1-c1ccccc1)CC2
16,< 800,CNC(=O)c1ccc(-c2ncc3c(n2)-c2sc(NC(C)=O)nc2CC3)cc1
17,< 800,CC(=O)Nc1nc2c(s1)-c1c(c(-c3ccco3)nn1-c1ccccc1)CC2
18,< 800,CC(=O)Nc1nc2c(s1)-c1nn(C(=O)c3ccccc3)cc1CC2
19,< 800,CC(=O)Nc1nc2c(s1)-c1c(c([C@H]3CCCO3)nn1-c1ccc(C(=O)NCc3ccncc3)cc1Cl)CC2
20,< 800,CC(=O)Nc1nc2c(s1)-c1c(cnn1-c1ccc(S(=O)(=O)N3CCN(C)CC3)cc1)CC2
21,< 800,C#CCN(C(=O)OC(C)(C)C)c1ncc2c(n1)-c1sc(NC(C)=O)nc1CC2
22,< 800,CC(=O)Nc1nc2c(s1)-c1nc(N3CCC4(CN(C)C4)C3)ncc1CC2
23,< 800,CCN(CC)CC1CCCCN1C(=O)c1ccc(-n2ncc3c2-c2sc(NC(C)=O)nc2CC3)cc1 (stereo unspecified)
